Earlier results, collected in patent US20050244357A1, “Oil-containing emulsifiable formulations containing active agents” (priority 2004, published 2005).

Test system: thrips
Conditions: cotton, applied alone

CNC(=O)CSP(=S)(OC)OC [Dimethoate]
control of thrips: good control
